Measured values from article PMC9520911, “New quinoline-based triazole hybrid analogs as effective inhibitors of α-amylase and α-glucosidase: Preparation, in vitro evaluation, and molecular docking along with in silico studies” (Frontiers in Chemistry, 2022).

Columns and labels:
[1] = target: T1, Porcine pancreatic α-amylase (Sus scrofa, UniProt P00690); assay: α-amylase inhibition assay (starch / dinitrosalicylic acid); format: biochemical; conditions: for IC50: in vitro, mean ± SEM
T1 sequence (P00690 16-511): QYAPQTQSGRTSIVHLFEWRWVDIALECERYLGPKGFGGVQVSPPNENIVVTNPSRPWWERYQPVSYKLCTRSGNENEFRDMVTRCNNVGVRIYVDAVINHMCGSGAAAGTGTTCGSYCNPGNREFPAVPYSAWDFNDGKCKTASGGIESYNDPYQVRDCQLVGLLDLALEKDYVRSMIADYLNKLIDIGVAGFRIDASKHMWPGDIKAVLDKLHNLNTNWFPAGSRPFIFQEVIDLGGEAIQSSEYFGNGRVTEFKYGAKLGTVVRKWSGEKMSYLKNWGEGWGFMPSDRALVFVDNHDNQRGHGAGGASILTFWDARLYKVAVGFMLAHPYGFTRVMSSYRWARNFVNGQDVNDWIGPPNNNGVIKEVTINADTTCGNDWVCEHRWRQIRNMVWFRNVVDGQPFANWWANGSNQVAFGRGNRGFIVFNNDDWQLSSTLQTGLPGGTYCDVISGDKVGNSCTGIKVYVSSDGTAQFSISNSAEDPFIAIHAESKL
Method: After preincubation, 40 μL of a 1% starch solution in 0.02 M sodium phosphate buffer (pH 6.9 with 0.006 M sodium chloride) was added to each tube at 5 s intervals. […] The reaction was stopped with 100 μL of dinitro salicylic acid color reagent. The test tubes were then incubated in a boiling water bath for 5 min and cooled to room temperature. The reaction mixture was then diluted after adding 900 μL distilled water and the absorbance was measured at 540 nm.
Ac = the absorbance of the control
As = the absorbance of the sample

In the case of `S=c1[nH]nc(-c2ccc3cccnc3c2)n1-c1ccccc1` [1d, 4-Phenyl-5-(quinolin-7-yl)-2,4-dihydro-3H-1,2,4-triazole-3-thione], the melting point is reported as 137 to 138 °C (dec.) and the IC50 [1] is reported as 40.2 ± 0.7 µM.
Compound `Cc1ccccc1-n1c(-c2ccc3cccnc3c2)n[nH]c1=S` [2d, 5-(Quinolin-7-yl)-4-(o-tolyl)-2,4-dihydro-3H-1,2,4-triazole-3-thione] has a melting point of 139 to 140 °C and an IC50 [1] of 22.6 ± 0.6 µM.
`Cc1cccc(-n2c(-c3ccc4cccnc4c3)n[nH]c2=S)c1` [3d, 5-(Quinolin-7-yl)-4-(m-tolyl)-2,4-dihydro-3H-1,2,4-triazole-3-thione] gave a melting point of 136 to 137 °C and an IC50 [1] of 32.3 ± 0.6 µM.
In the case of `Cc1ccc(-n2c(-c3ccc4cccnc4c3)n[nH]c2=S)cc1` [4d, 5-(Quinolin-7-yl)-4-(p-tolyl)-2,4-dihydro-3H-1,2,4-triazole-3-thione], the melting point is reported as 127 to 128 °C and the IC50 [1] is reported as 21.6 ± 0.4 µM.
Work on `O=[N+]([O-])c1ccccc1-n1c(-c2ccc3cccnc3c2)n[nH]c1=S` [5d, 4-(2-Nitrophenyl)-5-(quinolin-7-yl)-2,4-dihydro-3H-1,2,4-triazole-3-thione] yielded a melting point of 139 to 140 °C and an IC50 [1] of 5.3 ± 0.2 µM.
Compound `O=[N+]([O-])c1cccc(-n2c(-c3ccc4cccnc4c3)n[nH]c2=S)c1` [6d, 4-(3-Nitrophenyl)-5-(quinolin-7-yl)-2,4-dihydro-3H-1,2,4-triazole-3-thione] has a melting point of 130 to 131 °C and an IC50 [1] of 21.4 ± 0.3 µM.
`O=[N+]([O-])c1ccc(-n2c(-c3ccc4cccnc4c3)n[nH]c2=S)cc1` [7d, 4-(4-Nitrophenyl)-5-(quinolin-7-yl)-2,4-dihydro-3H-1,2,4-triazole-3-thione] gave a melting point of 127 to 128 °C and an IC50 [1] of 11.6 ± 0.2 µM.
For `COc1ccc(-n2c(-c3ccc4cccnc4c3)n[nH]c2=S)cc1` [8d, 4-(4-Methoxyphenyl)-5-(quinolin-7-yl)-2,4-dihydro-3H-1,2,4-triazole-3-thione], the melting point was 134 to 135 °C.
`Fc1ccccc1-n1c(-c2ccc3cccnc3c2)n[nH]c1=S` [9d, 4-(2-Fluorophenyl)-5-(quinolin-7-yl)-2,4-dihydro-3H-1,2,4-triazole-3-thione] gave a melting point of 129 to 130 °C and an IC50 [1] of 1.5 ± 0.1 µM.
Work on `Fc1cccc(-n2c(-c3ccc4cccnc4c3)n[nH]c2=S)c1` [10d, 4-(3-Fluorophenyl)-5-(quinolin-7-yl)-2,4-dihydro-3H-1,2,4-triazole-3-thione] yielded a melting point of 128 to 129 °C and an IC50 [1] of 2.1 ± 0.1 µM.
With `Fc1ccc(-n2c(-c3ccc4cccnc4c3)n[nH]c2=S)cc1` [11d, 4-(4-Fluorophenyl)-5-(quinolin-7-yl)-2,4-dihydro-3H-1,2,4-triazole-3-thione] the melting point was 131 to 132 °C, the IC50 [1] was 0.8 ± 0.05 µM and the “enhanced potency than standard acarbose drug (α-amylase)” value ([1]; relative to acarbose) was “ten-fold”.
`S=c1[nH]nc(-c2ccc3cccnc3c2)n1-c1ccccc1Cl` [12d, 4-(2-Chlorophenyl)-5-(quinolin-7-yl)-2,4-dihydro-3H-1,2,4-triazole-3-thione] gave a melting point of 136 to 137 °C and an IC50 [1] of 4.3 ± 0.1 µM.
In the case of `S=c1[nH]nc(-c2ccc3cccnc3c2)n1-c1cccc(Cl)c1` [13d, 4-(3-Chlorophenyl)-5-(quinolin-7-yl)-2,4-dihydro-3H-1,2,4-triazole-3-thione], the melting point is reported as 141 to 142 °C and the IC50 [1] is reported as 14.6 ± 0.3 µM.
For `S=c1[nH]nc(-c2ccc3cccnc3c2)n1-c1ccc(Cl)cc1` [14d, 4-(4-Chlorophenyl)-5-(quinolin-7-yl)-2,4-dihydro-3H-1,2,4-triazole-3-thione], the melting point was 131 to 132 °C, the IC50 [1] was 6.4 ± 0.3 µM and the “more potency than scaffold 7d (α-amylase)” value ([1]; relative to 7d) was 2 folds.
Compound `S=c1[nH]nc(-c2ccc3cccnc3c2)n1-c1ccccc1Br` [15d, 4-(2-Bromophenyl)-5-(quinolin-7-yl)-2,4-dihydro-3H-1,2,4-triazole-3-thione] has a melting point of 135 to 136 °C and an IC50 [1] of 17.2 ± 0.3 µM.
Work on `S=c1[nH]nc(-c2ccc3cccnc3c2)n1-c1cccc(Br)c1` [16d, 4-(3-Bromophenyl)-5-(quinolin-7-yl)-2,4-dihydro-3H-1,2,4-triazole-3-thione] yielded a melting point of 130 to 131 °C and an IC50 [1] of 31.8 ± 0.6 µM.
Compound `S=c1[nH]nc(-c2ccc3cccnc3c2)n1-c1ccc(Br)cc1` [17d, 4-(4-Bromophenyl)-5-(quinolin-7-yl)-2,4-dihydro-3H-1,2,4-triazole-3-thione] has a melting point of 132 to 133 °C and an IC50 [1] of 19.2 ± 0.3 µM.
`S=c1[nH]nc(-c2ccc3cccnc3c2)n1-c1ccc(Cl)c(Cl)c1` [18d, 4-(3,4-Dichlorophenyl)-5-(quinolin-7-yl)-2,4-dihydro-3H-1,2,4-triazole-3-thione] showed a melting point of 133 to 134 °C and an IC50 [1] of 1.8 ± 0.1 µM.
Work on `S=c1[nH]nc(-c2ccc3cccnc3c2)n1-c1ccc(-c2ccccc2)cc1` [19d] yielded an IC50 [1] of 18.5 ± 0.3 µM.
